According to PubChem BioAssay (NCI):
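The concentration for 50% growth inhibition is given as GI50. Definition used: TGI = concentration required for complete inhibition of growth.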

What was measured:
Assay in all cases: DTP human tumour cell line panel, 384-well format
SF-295 CNS = tested on: SF-295 CNS
HS 578T breast = tested on: HS 578T breast
HT29 colon = tested on: HT29 colon
ACHN renal = tested on: ACHN renal
HCT-15 colon = tested on: HCT-15 colon
NCI-H522 lung = tested on: NCI-H522 lung
SW-620 colon = tested on: SW-620 colon
UO-31 renal = tested on: UO-31 renal
CCRF-CEM leukemia = tested on: CCRF-CEM leukemia
OVCAR-5 ovarian = tested on: OVCAR-5 ovarian
HCC-2998 colon = tested on: HCC-2998 colon
DU-145 prostate = tested on: DU-145 prostate
SR leukemia = tested on: SR leukemia
KM12 colon = tested on: KM12 colon
SNB-19 CNS = tested on: SNB-19 CNS
MALME-3M melanoma = tested on: MALME-3M melanoma
SK-MEL-28 melanoma = tested on: SK-MEL-28 melanoma
PC-3 prostate = tested on: PC-3 prostate
HOP-92 NSCLC = tested on: HOP-92 NSCLC
MCF7 breast = tested on: MCF7 breast
EKVX NSCLC = tested on: EKVX NSCLC
OVCAR-8 ovarian = tested on: OVCAR-8 ovarian
MDA-MB-435 melanoma = tested on: MDA-MB-435 melanoma
SF-539 CNS = tested on: SF-539 CNS
MDA-MB-231 breast = tested on: MDA-MB-231 breast
BT-549 breast = tested on: BT-549 breast
A498 renal = tested on: A498 renal
SN12C renal = tested on: SN12C renal
NCI-H460 NSCLC = tested on: NCI-H460 NSCLC
SF-268 CNS = tested on: SF-268 CNS
IGROV1 ovarian = tested on: IGROV1 ovarian
RXF 393 renal = tested on: RXF 393 renal
HL-60(TB) leukemia = tested on: HL-60(TB) leukemia
OVCAR-4 ovarian = tested on: OVCAR-4 ovarian
SNB-75 CNS = tested on: SNB-75 CNS
TK-10 renal = tested on: TK-10 renal
786-0 renal = tested on: 786-0 renal
T-47D breast = tested on: T-47D breast
SK-MEL-5 melanoma = tested on: SK-MEL-5 melanoma
UACC-257 melanoma = tested on: UACC-257 melanoma
NCI-H226 lung = tested on: NCI-H226 lung
HOP-62 NSCLC = tested on: HOP-62 NSCLC
SK-OV-3 ovarian = tested on: SK-OV-3 ovarian
A549 NSCLC = tested on: A549 NSCLC
RPMI-8226 leukemia = tested on: RPMI-8226 leukemia
NCI-H322M lung = tested on: NCI-H322M lung
NCI-H23 lung = tested on: NCI-H23 lung
COLO 205 colon = tested on: COLO 205 colon
CAKI-1 renal = tested on: CAKI-1 renal
MOLT-4 leukemia = tested on: MOLT-4 leukemia
MDA-MB-468 breast = tested on: MDA-MB-468 breast
LOX IMVI melanoma = tested on: LOX IMVI melanoma
UACC-62 melanoma = tested on: UACC-62 melanoma
K-562 leukemia = tested on: K-562 leukemia
OVCAR-3 ovarian = tested on: OVCAR-3 ovarian
M14 melanoma = tested on: M14 melanoma
NCI/ADR-RES ovarian = tested on: NCI/ADR-RES ovarian

With `Cc1cc2ncnn2cc1Nc1ncc2c(n1)n(C1CCOCC1)c(=O)n2C` the GI50 (SF-295 CNS) was 6.33 µM, the TGI (SF-295 CNS) was greater than 100 µM and the GI50 (HS 578T breast) was 4.78 µM. For the same compound, the TGI (HS 578T breast) was 37.9 µM, the GI50 (HT29 colon) was 32.9 µM and the TGI (HT29 colon) was greater than 100 µM. It also gave a GI50 (ACHN renal) of 21.5 µM, a TGI (ACHN renal) greater than 100 µM and a GI50 (HCT-15 colon) of 12 µM. For the same compound, the TGI (HCT-15 colon) was greater than 100 µM, the GI50 (NCI-H522 lung) was 9.5 µM and the TGI (NCI-H522 lung) was greater than 100 µM. It also gave a GI50 (SW-620 colon) greater than 100 µM, a TGI (SW-620 colon) greater than 100 µM and a GI50 (UO-31 renal) greater than 100 µM. The TGI (UO-31 renal) was greater than 100 µM, the GI50 (CCRF-CEM leukemia) was 3.21 µM and the TGI (CCRF-CEM leukemia) was 17.5 µM. It also gave a GI50 (OVCAR-5 ovarian) of 11.9 µM, a TGI (OVCAR-5 ovarian) greater than 100 µM and a GI50 (HCC-2998 colon) of 38.2 µM. For the same compound, the TGI (HCC-2998 colon) was greater than 100 µM, the GI50 (DU-145 prostate) was 28.8 µM and the TGI (DU-145 prostate) was greater than 100 µM. For the same compound, the GI50 (SR leukemia) was 4.11 µM, the TGI (SR leukemia) was greater than 100 µM and the GI50 (KM12 colon) was 18 µM. The TGI (KM12 colon) was greater than 100 µM, the GI50 (SNB-19 CNS) was greater than 100 µM and the TGI (SNB-19 CNS) was greater than 100 µM. The GI50 (MALME-3M melanoma) was 4.21 µM, the TGI (MALME-3M melanoma) was 61.9 µM and the GI50 (SK-MEL-28 melanoma) was 22.4 µM. For the same compound, the TGI (SK-MEL-28 melanoma) was greater than 100 µM, the GI50 (PC-3 prostate) was 8.76 µM and the TGI (PC-3 prostate) was greater than 100 µM. The GI50 (HOP-92 NSCLC) was 6.69 µM, the TGI (HOP-92 NSCLC) was greater than 100 µM and the GI50 (MCF7 breast) was 4.64 µM. It also gave a TGI (MCF7 breast) greater than 100 µM, a GI50 (EKVX NSCLC) of 15.6 µM and a TGI (EKVX NSCLC) greater than 100 µM. It also gave a GI50 (OVCAR-8 ovarian) of 50.5 µM, a TGI (OVCAR-8 ovarian) greater than 100 µM and a GI50 (MDA-MB-435 melanoma) of 41.4 µM. The TGI (MDA-MB-435 melanoma) was greater than 100 µM, the GI50 (SF-539 CNS) was 58.2 µM and the TGI (SF-539 CNS) was greater than 100 µM. For the same compound, the GI50 (MDA-MB-231 breast) was 7.65 µM, the TGI (MDA-MB-231 breast) was greater than 100 µM and the GI50 (BT-549 breast) was 24.2 µM. It also gave a TGI (BT-549 breast) greater than 100 µM, a GI50 (A498 renal) of 2.66 µM and a TGI (A498 renal) of 31.3 µM. The GI50 (SN12C renal) was 10.4 µM, the TGI (SN12C renal) was greater than 100 µM and the GI50 (NCI-H460 NSCLC) was 4.88 µM. For the same compound, the TGI (NCI-H460 NSCLC) was greater than 100 µM, the GI50 (SF-268 CNS) was greater than 100 µM and the TGI (SF-268 CNS) was greater than 100 µM. For the same compound, the GI50 (IGROV1 ovarian) was 4.91 µM, the TGI (IGROV1 ovarian) was 32.9 µM and the GI50 (RXF 393 renal) was 49.6 µM. For the same compound, the TGI (RXF 393 renal) was greater than 100 µM, the GI50 (HL-60(TB) leukemia) was 35.2 µM and the TGI (HL-60(TB) leukemia) was greater than 100 µM. It also gave a GI50 (OVCAR-4 ovarian) of 8.13 µM, a TGI (OVCAR-4 ovarian) greater than 100 µM and a GI50 (SNB-75 CNS) of 6.38 µM. The TGI (SNB-75 CNS) was greater than 100 µM, the GI50 (TK-10 renal) was 74.7 µM and the TGI (TK-10 renal) was greater than 100 µM. It also gave a GI50 ([…]-0 renal) of 36.4 µM, a TGI (786-0 renal) greater than 100 µM and a GI50 (T-47D breast) of 1.7 µM. For the same compound, the TGI (T-47D breast) was 7.63 µM, the GI50 (SK-MEL-5 melanoma) was 15.5 µM and the TGI (SK-MEL-5 melanoma) was greater than 100 µM. It also gave a GI50 (UACC-257 melanoma) greater than 100 µM, a TGI (UACC-257 melanoma) greater than 100 µM and a GI50 (NCI-H226 lung) of 10.5 µM. The TGI (NCI-H226 lung) was greater than 100 µM, the GI50 (HOP-62 NSCLC) was 22.2 µM and the TGI (HOP-62 NSCLC) was greater than 100 µM. It also gave a GI50 (SK-OV-3 ovarian) of 6.16 µM, a TGI (SK-OV-3 ovarian) greater than 100 µM and a GI50 (A549 NSCLC) of 12.1 µM. It also gave a TGI (A549 NSCLC) greater than 100 µM, a GI50 (RPMI-8226 leukemia) of 1.44 µM and a TGI (RPMI-8226 leukemia) of 3.98 µM. The GI50 (NCI-H322M lung) was 18.8 µM, the TGI (NCI-H322M lung) was greater than 100 µM and the GI50 (NCI-H23 lung) was 26.5 µM. The TGI (NCI-H23 lung) was greater than 100 µM, the GI50 (COLO 205 colon) was 17.1 µM and the TGI (COLO 205 colon) was greater than 100 µM. For the same compound, the GI50 (CAKI-1 renal) was 16.5 µM, the TGI (CAKI-1 renal) was greater than 100 µM and the GI50 (MOLT-4 leukemia) was 5.53 µM. The TGI (MOLT-4 leukemia) was 33.8 µM, the GI50 (MDA-MB-468 breast) was 5.36 µM and the TGI (MDA-MB-468 breast) was 52.7 µM. It also gave a GI50 (LOX IMVI melanoma) of 14.4 µM, a TGI (LOX IMVI melanoma) greater than 100 µM and a GI50 (UACC-62 melanoma) of 21.2 µM. It also gave a TGI (UACC-62 melanoma) greater than 100 µM, a GI50 (K-562 leukemia) greater than 100 µM and a TGI (K-562 leukemia) greater than 100 µM. The GI50 (OVCAR-3 ovarian) was 14.5 µM, the TGI (OVCAR-3 ovarian) was greater than 100 µM and the GI50 (M14 melanoma) was 19.3 µM. It also gave a TGI (M14 melanoma) greater than 100 µM, a GI50 (NCI/ADR-RES ovarian) greater than 100 µM and a TGI (NCI/ADR-RES ovarian) greater than 100 µM.
